PMC6105673 (Nature Communications, 2018)
No end group written: not given here. *: point of attachment. Biotin = O=C1N[C@H]2[C@H](CS[C@H]2CCCCC(=O)*)N1

Columns and labels:
[1] = target: T1, pVHL-elongin B-elongin C (VBC) complex (Homo sapiens, UniProt P40337+Q15369+Q15370); assay: Biolayer interferometry kinetic analysis of VBC complex binding to biotinylated HIF-2α peptides; settings: for ka (association rate): purified VBC; for binding to VBC compared to WT (in words): HIF-2αOH peptides (523–541)
T1 construct: a construct encoding N-terminal GST-tagged pVHL19 (54–213); GST (N, cleaved yes); made in house; host or cells: BL21(DE3) E. coli
Method: Absorbance was read at 450 nm. […] The data were analyzed based on a 1:1 binding model using the BLItz Pro software with the fitted curves shown as gray lines. […] Values represent mean of three experiments conducted with independently purified protein ± SEM. * denotes uncharacterized band
Multiple concentrations of purified VBC complex were diluted in kinetics buffer and allowed to associate with immobilized peptide over 120 s. Subsequently, the SA-BLI probe was immersed into kinetics buffer for 120 s to allow for dissociation. The data were analyzed, step corrected, reference corrected, and fit to a global 1:1 binding model. Kd, ka, and kd were calculated using the BLItz Pro software.

HIS6-PHD2 (181–426) = assay: In vitro hydroxylation assay (HIS6-PHD2 treatment, then IVTT pVHL pull-down); type: biochemical; settings: unmodified biotinylated peptides, 15 μg/mL HIS6-PHD2 (181–426), 1 h room temperature, then IVTT HA-VHL30 under stringent buffer
Method: Considering that prolyl hydroxylation is indispensable for HIF-2α binding to pVHL, we next examined the notion that the A530V mutation negatively influences hydroxylation of HIF-2α via PHD2, which would attenuate HIF-2α A530V binding affinity for pVHL. We conducted an in vitro hydroxylation assay utilizing unmodified peptides (amino acids 523–542) incubated with purified HIS6-PHD2 (catalytic core, amino acids 181–426).
Fig. 5 A subset of class 1 mutations specifically disrupts PHD2-mediated hydroxylation. a, b Biotinylated HIF-2α peptides (residues 523–542) were immobilized on streptavidin- agarose beads and incubated with HIS6-PHD2 for 1 h at room temperature prior to incubation with in vitro transcribed and translated (IVTT) pVHL. Streptavidin beads were pulled down (PD) and levels of HA-tagged pVHL were visualized via immmunoblotting (IB). c HEK293a cells were co-transfected with FLAG-VHL and HA-HIF-2α constructs. FLAG was immunoprecipitated (IP) and levels of HA-tagged HIF-2α were visualized via immunoblotting (IB). * denotes uncharacterized band
The in vitro pVHL-HIF-2α hydroxylation assay was performed according to a previously published protocol. 5 μg of biotinylated HIF-2α peptide was immobilized on streptavidin-agarose beads. Subsequently, peptides were incubated with 15 μg/mL HIS6-PHD2 (181–426) in 500 μL of 40 mM HEPES pH 7.4, 80 mM KCl, 5 mM a-ketoglutarate, 2 mM ascorbic acid, 100 μM FeCl2 tetrahydrate solution at room temperature for 1 h. FeCl2 was stored under anoxic conditions to prevent oxidation. Following hydroxylation, beads were washed 5x with EBC buffer and peptides were incubated with IVTT HA-VHL30 under the stringent buffer conditions described above.

[2] = BLItz biolayer interferometry, peptide (523–541) immobilized, global 1:1 model, mean of three experiments ± SEM

T1 sequence (P40337 54-213): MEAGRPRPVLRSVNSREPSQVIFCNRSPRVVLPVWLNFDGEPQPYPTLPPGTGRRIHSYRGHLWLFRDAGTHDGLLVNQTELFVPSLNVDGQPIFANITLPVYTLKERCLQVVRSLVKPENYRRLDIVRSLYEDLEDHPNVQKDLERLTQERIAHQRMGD
T1 sequence (Q15370 whole entry partner): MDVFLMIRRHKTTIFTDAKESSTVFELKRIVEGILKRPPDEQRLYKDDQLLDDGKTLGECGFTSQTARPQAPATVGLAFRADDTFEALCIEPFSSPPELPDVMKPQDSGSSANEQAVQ
T1 sequence (Q15369 17-112 partner limits assumed): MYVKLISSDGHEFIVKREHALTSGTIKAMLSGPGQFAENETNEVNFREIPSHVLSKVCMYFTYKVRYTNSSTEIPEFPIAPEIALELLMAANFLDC

Compound: CC[C@H](C)[C@H](NC(=O)[C@H](Cc1ccc(O)cc1)NC(=O)[C@@H]1C[C@@H](O)CN1C(=O)[C@@H](NC(=O)[C@H](CC(C)C)NC(=O)[C@@H](NC(=O)[C@H](CCC(=O)O)NC(=O)[C@H](CC(C)C)NC(=O)[C@H](CC(=O)O)NC(=O)[C@H](CC(C)C)NC(=O)[C@H](CCC(=O)O)NC(=O)CCCC[C@@H]1SC[C@@H]2NC(=O)N[C@@H]21)[C@@H](C)O)[C@@H](C)O)C(=O)N1CCC[C@H]1C(=O)N[C@@H](CCSC)C(=O)N[C@@H](CC(=O)O)C(=O)NCC(=O)N[C@@H](CCC(=O)O)C(=O)N[C@@H](CC(=O)O)C(=O)N[C@@H](Cc1ccccc1)C(=O)N[C@@H](CCC(N)=O)C(N)=O [HIF-2αOH (A530T)]
- ka (association rate) [1, 2]: 3.4 ± 0.3 x10^4 Ms^−1

Compound: CC[C@H](C)[C@H](NC(=O)[C@H](Cc1ccc(O)cc1)NC(=O)[C@@H]1C[C@@H](O)CN1C(=O)[C@@H](NC(=O)[C@H](CC(C)C)NC(=O)[C@@H](NC(=O)[C@H](CCC(=O)O)NC(=O)[C@H](CC(C)C)NC(=O)[C@H](CC(=O)O)NC(=O)[C@H](CC(C)C)NC(=O)[C@H](CCC(=O)O)NC(=O)CCCC[C@@H]1SC[C@@H]2NC(=O)N[C@@H]21)[C@@H](C)O)C(C)C)C(=O)N1CCC[C@H]1C(=O)N[C@@H](CCSC)C(=O)N[C@@H](CC(=O)O)C(=O)NCC(=O)N[C@@H](CCC(=O)O)C(=O)N[C@@H](CC(=O)O)C(=O)N[C@@H](Cc1ccccc1)C(=O)N[C@@H](CCC(N)=O)C(N)=O [HIF-2αOH (A530V)]
- ka (association rate) [1, 2]: 2.7 ± 0.2 x10^4 Ms^−1

Compound: CC[C@H](C)[C@H](NC(=O)[C@H](Cc1ccc(O)cc1)NC(=O)[C@@H]1C[C@@H](O)CN1C(=O)[C@H](C)NC(=O)[C@H](CC(C)C)NC(=O)[C@@H](NC(=O)[C@H](CCC(=O)O)NC(=O)[C@H](CC(C)C)NC(=O)[C@H](CC(=O)O)NC(=O)[C@H](CC(C)C)NC(=O)[C@H](CCC(=O)O)NC(=O)CCCC[C@@H]1SC[C@@H]2NC(=O)N[C@@H]21)[C@@H](C)O)C(=O)N1CCC[C@H]1C(=O)N[C@@H](CCSC)C(=O)N[C@@H](CC(=O)O)C(=O)NCC(=O)N[C@@H](CCC(=O)O)C(=O)N[C@@H](CCC(=O)O)C(=O)N[C@@H](Cc1ccccc1)C(=O)N[C@@H](CCC(N)=O)C(N)=O [HIF-2αOH (D539E)]
- binding to VBC compared to WT (in words) ([1]; BLI): little defect
- ka (association rate) [1, 2]: 3.6 ± 0.05 x10^4 Ms^−1

Compound: CC[C@H](C)[C@H](NC(=O)[C@H](Cc1ccc(O)cc1)NC(=O)[C@@H]1C[C@@H](O)CN1C(=O)[C@H](C)NC(=O)[C@H](CC(C)C)NC(=O)[C@@H](NC(=O)[C@H](CCC(=O)O)NC(=O)[C@H](CC(C)C)NC(=O)[C@H](CC(=O)O)NC(=O)[C@H](CC(C)C)NC(=O)[C@H](CCC(=O)O)NC(=O)CCCC[C@@H]1SC[C@@H]2NC(=O)N[C@@H]21)[C@@H](C)O)C(=O)N1CCC[C@H]1C(=O)N[C@@H](CCSC)C(=O)N[C@@H](CC(=O)O)C(=O)NCC(=O)N[C@@H](CCC(=O)O)C(=O)N[C@@H](CC(=O)O)C(=O)N[C@@H](CC(C)C)C(=O)N[C@@H](CCC(N)=O)C(N)=O [HIF-2αOH (F540L)]
- ka (association rate) ([1]; BLI, 1:1 model): 31000 M/s
- ka (association rate) [1, 2]: 3.1 ± 0.3 x10^4 Ms^−1

Compound: CC[C@H](C)[C@H](NC(=O)[C@H](Cc1ccc(O)cc1)NC(=O)[C@@H]1C[C@@H](O)CN1C(=O)[C@H](C)NC(=O)[C@H](CC(C)C)NC(=O)[C@@H](NC(=O)[C@H](CCC(=O)O)NC(=O)[C@H](CC(C)C)NC(=O)[C@H](CC(=O)O)NC(=O)[C@H](CC(C)C)NC(=O)[C@H](CCC(=O)O)NC(=O)CCCC[C@@H]1SC[C@@H]2NC(=O)N[C@@H]21)[C@@H](C)O)C(=O)N1CCC[C@H]1C(=O)N[C@@H](CCSC)C(=O)N[C@@H](CC(=O)O)C(=O)N[C@@H](CCCNC(=N)N)C(=O)N[C@@H](CCC(=O)O)C(=O)N[C@@H](CC(=O)O)C(=O)N[C@@H](Cc1ccccc1)C(=O)N[C@@H](CCC(N)=O)C(N)=O [HIF-2αOH (G537R)]
- ka (association rate) ([1]; BLI, 1:1 model): 30000 M/s
- ka (association rate) [1, 2]: 3.0 ± 0.2 x10^4 Ms^−1

Compound: CC[C@H](C)[C@H](NC(=O)[C@@H]1CCCN1C(=O)[C@@H](NC(=O)[C@H](Cc1ccc(O)cc1)NC(=O)[C@@H]1C[C@@H](O)CN1C(=O)[C@H](C)NC(=O)[C@H](CC(C)C)NC(=O)[C@@H](NC(=O)[C@H](CCC(=O)O)NC(=O)[C@H](CC(C)C)NC(=O)[C@H](CC(=O)O)NC(=O)[C@H](CC(C)C)NC(=O)[C@H](CCC(=O)O)NC(=O)CCCC[C@@H]1SC[C@@H]2NC(=O)N[C@@H]21)[C@@H](C)O)[C@@H](C)CC)C(=O)N[C@@H](CC(=O)O)C(=O)NCC(=O)N[C@@H](CCC(=O)O)C(=O)N[C@@H](CC(=O)O)C(=O)N[C@@H](Cc1ccccc1)C(=O)N[C@@H](CCC(N)=O)C(N)=O [HIF-2αOH (M535I)]
- binding to VBC compared to WT (in words) ([1]; BLI): little defect
- ka (association rate) [1, 2]: 3.1 ± 0.2 x10^4 Ms^−1

Compound: CC[C@H](C)[C@H](NC(=O)[C@H](CS)NC(=O)[C@@H]1C[C@@H](O)CN1C(=O)[C@H](C)NC(=O)[C@H](CC(C)C)NC(=O)[C@@H](NC(=O)[C@H](CCC(=O)O)NC(=O)[C@H](CC(C)C)NC(=O)[C@H](CC(=O)O)NC(=O)[C@H](CC(C)C)NC(=O)[C@H](CCC(=O)O)NC(=O)CCCC[C@@H]1SC[C@@H]2NC(=O)N[C@@H]21)[C@@H](C)O)C(=O)N1CCC[C@H]1C(=O)N[C@@H](CCSC)C(=O)N[C@@H](CC(=O)O)C(=O)NCC(=O)N[C@@H](CCC(=O)O)C(=O)N[C@@H](CC(=O)O)C(=O)N[C@@H](Cc1ccccc1)C(=O)N[C@@H](CCC(N)=O)C(N)=O [HIF-2αOH (Y532C)]
- ka (association rate) [1, 2]: 4.9 ± 0.2 x10^4 Ms^−1

Compound: CC[C@H](C)[C@H](NC(=O)[C@H](Cc1ccc(O)cc1)NC(=O)[C@@H]1C[C@@H](O)CN1C(=O)[C@H](C)NC(=O)[C@H](CC(C)C)NC(=O)[C@@H](NC(=O)[C@H](CCC(=O)O)NC(=O)[C@H](CC(C)C)NC(=O)[C@H](CC(=O)O)NC(=O)[C@H](CC(C)C)NC(=O)[C@@H](N)CCC(=O)O)[C@@H](C)O)C(=O)N1CCC[C@H]1C(=O)N[C@@H](CCSC)C(=O)N[C@@H](CC(=O)O)C(=O)NCC(=O)N[C@@H](CCC(=O)O)C(=O)N[C@@H](CC(=O)O)C(=O)N[C@@H](Cc1ccccc1)C(=O)N[C@@H](CCC(N)=O)C(N)=O [HIF-2αOH (wild-type)]
- ka (association rate) ([1]; BLI, 1:1 model): 41000 M/s
- ka (association rate) [1, 2]: 4.1 ± 0.4 x10^4 Ms^−1

Compound: Bio-HIF-2α(A530T): unmodified HIF-2α peptide (523–542) with A530T mutation (Biotin-ELDLETLTPYIPMDGEDFQL-NH2; SMILES CC[C@H](C)[C@H](NC(=O)[C@H](Cc1ccc(O)cc1)NC(=O)[C@@H]1CCCN1C(=O)[C@@H](NC(=O)[C@H](CC(C)C)NC(=O)[C@@H](NC(=O)[C@H](CCC(=O)O)NC(=O)[C@H](CC(C)C)NC(=O)[C@H](CC(=O)O)NC(=O)[C@H](CC(C)C)NC(=O)[C@H](CCC(=O)O)NC(=O)CCCC[C@@H]1SC[C@@H]2NC(=O)N[C@@H]21)[C@@H](C)O)[C@@H](C)O)C(=O)N1CCC[C@H]1C(=O)N[C@@H](CCSC)C(=O)N[C@@H](CC(=O)O)C(=O)NCC(=O)N[C@@H](CCC(=O)O)C(=O)N[C@@H](CC(=O)O)C(=O)N[C@@H](Cc1ccccc1)C(=O)N[C@@H](CCC(N)=O)C(=O)N[C@@H](CC(C)C)C(N)=O)
- binding to pVHL following HIS6-PHD2 treatment (immunoblot, in words) (HIS6-PHD2 (181–426)): only minimally able to bind pVHL

Compound: Bio-HIF-2α(A530V): unmodified HIF-2α peptide (523–542) with A530V mutation (Biotin-ELDLETLVPYIPMDGEDFQL; UniProt Q99814 523-542, looked up, fragment A530V)
- binding to pVHL following HIS6-PHD2 treatment (immunoblot, in words) (HIS6-PHD2 (181–426)): only minimally able to bind pVHL

Compound: HIF-2α (wild-type): biotinylated non-hydroxylated wild-type HIF-2α peptide, residues 523–541
- binding to pVHL following HIS6-PHD2 treatment (immunoblot, in words) (HIS6-PHD2 (181–426)): failed to bind pVHL

Compound: HIF-2α L542P peptide: unmodified HIF-2α peptide (523–542) with class 1 mutation L542P (Biotin-ELDLETLAPYIPMDGEDFQP-NH2; SMILES CC[C@H](C)[C@H](NC(=O)[C@H](Cc1ccc(O)cc1)NC(=O)[C@@H]1CCCN1C(=O)[C@H](C)NC(=O)[C@H](CC(C)C)NC(=O)[C@@H](NC(=O)[C@H](CCC(=O)O)NC(=O)[C@H](CC(C)C)NC(=O)[C@H](CC(=O)O)NC(=O)[C@H](CC(C)C)NC(=O)[C@H](CCC(=O)O)NC(=O)CCCC[C@@H]1SC[C@@H]2NC(=O)N[C@@H]21)[C@@H](C)O)C(=O)N1CCC[C@H]1C(=O)N[C@@H](CCSC)C(=O)N[C@@H](CC(=O)O)C(=O)NCC(=O)N[C@@H](CCC(=O)O)C(=O)N[C@@H](CC(=O)O)C(=O)N[C@@H](Cc1ccccc1)C(=O)N[C@@H](CCC(N)=O)C(=O)N1CCC[C@H]1C(N)=O)
- binding to pVHL following HIS6-PHD2 treatment (immunoblot, in words) (HIS6-PHD2 (181–426)): failed to bind pVHL
